Experiments:
MCF-7 cells = assay: In vitro cytotoxicity, MCF-7 cells, 72 hour exposure, surviving fraction by plating efficiency; assay type: cell-based; conditions: MCF-7 (human breast tumor) cells, read-out: IC50 value towards MCF-7 cells
Protocol: (§1) Disulfide-containing and thiol-containing PEGylated taxane drugs of the invention can be evaluated for their ability to suppress proliferation of various unwanted cell lines in vitro. For example, cell lines such as the human lung carcinoma line A549, the human breast tumor line MCF-7, and the Burkitt's lymphoma line Namalwa can easily be used for the assessment of cytotoxicity of these compounds. Cells to be evaluated can be exposed to the compounds for 72 hours and the surviving fractions of cells measured in direct assays by known methods. IC50 values can then be calculated from the results of the assays.
The sulfide, disulfide, and sulfhydryl containing PEGylated taxane drugs of the invention can be evaluated for their ability to suppress proliferation of various human tumor cell lines in vitro. Two adherent cell lines A549(human lung carcinoma) and MCF-7 (human breast tumor) and the non-adherent cell line, Namalwa (Burkitt's lymphoma) are used for the assessment of cytotoxicity of these compounds. Cells are exposed to the compounds for 72 hours and the surviving fractions of cells are measured in direct assays.

A-431 cells = assay: In vitro cytotoxicity, A-431 cells; assay type: cell-based; conditions: read-out: IC50 towards A-431 cells
Protocol: as §1
Cytotoxicity of the PEGylated taxanes and their antibody conjugates to non-adherent cell lines such as Namalwa and HL-60 can be measured by back-extrapolation of cell proliferation curves as described in Goldmacher et al, 135 J. Immunol. 3648-3651 (1985). Cytotoxicity of these compounds to adherent cell lines such as SKBR3 and A431 can be determined by clonogenic assays as described in Goldmacher et al, 102 J. Cell Biol. 1312-1319 (1986).

SMILES	IC50 (MCF-7 cells)	IC50 (A-431 cells)
COc1ccc(OC)c(C(=O)OC2C3C4(OC(C)=O)COC4CC(O)C3(C)C(=O)C(OC(=O)CCOCCOCCOCCOCCSSC)C3=C(C)C(OC(=O)C(O)C(C=C(C)C)NC(=O)OC(C)(C)C)CC2(O)C3(C)C)c1 (stereo not drawn) [taxoid 17, 3′-Dephenyl-3′-(isobutenyl)-2-debenzoyl-2-(2,5-dimethoxybenzoyl)-10-(15-methyldithio-4,7,10,13-tetraoxapentadecanoyl)-docetaxel]	0.063 nM	0.33 nM
COc1ccc(OC)c(C(=O)OC2C3C4(OC(C)=O)COC4CC(OC(=O)CCOCCOCCOCCOCCSSC)C3(C)C(=O)C(O)C3=C(C)C(OC(=O)C(O)C(C=C(C)C)NC(=O)OC(C)(C)C)CC2(O)C3(C)C)c1 (stereo not drawn) [taxoid 20, 3′-Dephenyl-3′-(isobutenyl)-2-debenzoyl-2-(2,5-dimethoxybenzoyl)-7-(15-methyldithio-4,7,10,13-tetraoxapentadecanoyl)-docetaxel]	0.32 nM	–
